This note sets out measurements from PubChem BioAssay (NCI).

Several values for one entry are separate records, joined by “and”; a condition that tells them apart may be missing. Equal values may be shown once.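 1) Cells in 96-well plates. 2) Compound, 48 h, 5 concentrations. 3) Linear interpolation between surrounding doses. 4) Unreached endpoint = highest concentration. GI50 is the concentration that inhibits growth by half. TGI: total growth inhibition.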

Test in all cases: DTP human tumour cell line panel, 48 h
Assay [1] concerns LXFL 529 NSCLC.
In assay [2] the test system is OVCAR-8 ovarian.
The subject of assay [3] is UO-31 renal.
In assay [4] the test system is SK-MEL-2 melanoma.
Assay [5] has as its system EKVX NSCLC.
In assay [6] the test system is NCI-H460 lung.
Assay [7] deals with M19-MEL melanoma.
Assay [8] deals with UACC-257 melanoma.
The test system of assay [9] is MCF7 breast.
Assay [10] has as its system NCI/ADR-RES ovarian.

In general, TGI refers to the concentration at which net growth stops. What is called GI50 is the concentration at which growth is held to half of that of the control.

As to `S=c1[nH]c(=S)c2sc(=S)n(-c3ccccc3)c2[nH]1`, the TGI in assay [1], in [2], in assay [3], in assay [4], in assay [5] and in assay [6] was more than 100 µM each time. For the same compound, the total growth inhibition concentration (TGI) in assay [7] and in assay [8] was more than 100 µM each time.
Regarding `CCOc1cc2c(cnc3c4cc(OC)c(OC)cc4ccc23)cc1OC`, the TGI in [1], in assay [2], in assay [3], in assay [4], in [5] and in [6] was more than 100 µM throughout. For the same compound, the TGI in assay [7] and in assay [8] was more than 100 µM throughout.
Consider `N#CCc1ccc(C(C#N)/C(CCCC(=O)Nc2cccc([N+](=O)[O-])c2)=N\NC(=O)NN)cc1` (stereo not drawn), for which the concentration for total growth inhibition (TGI) in assay [1], in assay [2], in [3], in assay [4], in assay [5] and in assay [6] was more than 100 µM each time. Besides, the total growth inhibition concentration (TGI) in [7] and in assay [8] was more than 100 µM in each case.
Regarding `NCCCN(CCCN)CCCNCc1c2ccccc2c(CNCCCN(CCCN)CCCN)c2ccccc12`, the TGI in [1] is 22.6 µM; in assay [2], 25.8 µM; in [3], more than 100 µM; in [4], 54.9 µM; in assay [5], 28.4 µM; in assay [6] it was 29.2 µM. Moreover, the figures for the TGI in [7] and in assay [8] were 20.4 µM and 27.3 µM, respectively.
For `O=C(O)c1c2c(c(C(=O)O)c3ccccc13)-c1ccccc1-2`, the TGI in assay [1] was more than 100 µM; in assay [2], more than 100 µM; in [3], more than 100 µM; in [4], 97.1 µM; in [5] it was more than 100 µM; in assay [7], more than 100 µM. This compound came in with a total growth inhibition concentration (TGI) in [8] of more than 100 µM.
For the compound `CC(=O)OCSc1ncnc2c1ncn2CN1CCOCC1`, the TGI in assay [1], in assay [2], in [3], in assay [4], in [5] and in assay [6] was more than 100 µM throughout. Further, the TGI in assay [7] and in assay [8] was more than 100 µM in each case.
As to `OCC(O)C(O)C(O)C1SC(c2ccccc2)=NN1c1ccccc1` (stereo not drawn), the concentration for total growth inhibition (TGI) in assay [9] is more than 100 µM; in assay [1], more than 100 µM; in [2], more than 100 µM; in [3] it was more than 100 µM; in assay [4], 93.2 µM; in [5], more than 100 µM. Further, the TGI in assay [6], in [7], in [10] and in assay [8] was more than 100 µM each time.
As to `CC(C)=CC(=O)Oc1ccc([N+](=O)[O-])cc1`, the TGI in [1], in assay [2], in [3], in assay [4], in [5] and in assay [6] was more than 100 µM throughout. Besides, the total growth inhibition concentration (TGI) in assay [7] and in assay [8] was more than 100 µM each time.
On to `C1CNCCNCCNCCN1`, for which the total growth inhibition concentration (TGI) in assay [1], in assay [2], in [3], in assay [4], in [5] and in assay [6] was more than 100 µM each time. Further, the concentration for total growth inhibition (TGI) in assay [7] and in assay [8] was more than 100 µM in each case.
In the case of `S=c1nc(Oc2ccc(Cl)c(Cl)c2)[nH]c(=S)[nH]1`, the total growth inhibition concentration (TGI) in assay [9] is more than 100 µM; in assay [1] it was more than 100 µM; in [2], 97.4 µM; in assay [3], 71.2 µM; in assay [5], more than 93.9 µM; in assay [6], 64.9 µM. Also, the TGI was 56.5 µM in [7], more than 100 µM in assay [10] and more than 80 µM in [8].
With `CC(=O)NC1=C(Nc2ccc(C)cc2)C(=O)c2ccccc2C1=O`, the TGI in assay [1] is more than 75 µM; in assay [2] it was more than 75 µM; in [3] it was more than 75 µM; in [4] it was 56.7 µM; in [5], more than 75 µM; in assay [6] it was 22.9 µM. Also, the concentration for total growth inhibition (TGI) worked out at 17.5 µM in assay [7] and 51.5 µM in assay [8].
As to `Clc1ccc(-n2nnc(C3=NCCCN3)c2-c2ccccc2)cc1`, the TGI in [1], in [2], in assay [3], in assay [4], in [5] and in assay [6] was more than 100 µM throughout. In addition, the TGI in [7] and in [8] was more than 100 µM throughout.
Regarding `CN(C)CC(/C(Cc1ccccc1)=N\NC(=O)c1ccncc1)c1ccccc1` (stereo not drawn), the TGI in assay [1] was more than 100 µM; in assay [2], more than 100 µM; in assay [4], 42.1 µM; in assay [5], 68.1 µM; in assay [7], more than 100 µM; in [8], more than 100 µM.
As for `Cc1cc(O)c(C(=O)CC2(O)C(=O)Nc3c(Cl)cc(Cl)cc32)c(=O)o1` (stereo not drawn), the total growth inhibition concentration (TGI) in [1], in [2], in assay [3], in assay [4], in [5] and in assay [6] was more than 100 µM in each case. For the same compound, the total growth inhibition concentration (TGI) in assay [7] and in [8] was more than 100 µM in each case.
Regarding `CC(=O)OCC1OC(OC2CC3C(C)(C)C(OC(C)=O)CC[C@]3(C)C3CCC45CC4(CC[C@H]5C(C)CC(O)[C@@H](O)C(C)(C)O)[C@]23C)C(O)C(O)C1O` (stereo partly drawn), the GI50 was 4.65 µM in assay [1]; 8.43 µM in assay [2]; 18.5 µM in assay [3]; 2.87 µM in assay [4]; 15.8 µM in assay [5]; 6.88 µM in assay [6]. In assay [7], the GI50 is 3.18 µM. For the same compound, the total growth inhibition concentration (TGI) in [1] was 11.3 µM and 16.2 µM; in [2] it was 13.9 µM and 22.5 µM; in assay [3], 12.3 µM and 32.5 µM; in assay [4], 16.8 µM and 7.36 µM; in assay [5], 13.1 µM and 29.2 µM; in [6] it was 16.2 µM and 19.5 µM. Besides, the TGI in assay [7] was 13.7 µM and 12.7 µM; in [8], 13.8 µM and 20.7 µM.
For `Cn1nc(-c2ccccc2)c(N=[N+]=[N-])cc1=O`, the TGI in [1], in [2], in assay [3], in assay [5], in assay [6] and in assay [7] was more than 100 µM each time. Besides, the TGI in [8] is more than 100 µM.
Regarding `COC1/C(=C\C(=O)OC(C)(C)C)c2ccccc2N1C(C)=O` (stereo not drawn), the total growth inhibition concentration (TGI) in assay [1], in assay [2], in [3], in [4], in [5] and in assay [6] was more than 100 µM throughout. Also, the TGI in assay [7] and in assay [8] was more than 100 µM throughout.
`O=C(CNC(=O)OCc1ccccc1)Oc1ccccc1`: the TGI in assay [1], in assay [2], in assay [3], in assay [4], in assay [5] and in [6] was more than 100 µM throughout. The total growth inhibition concentration (TGI) in [7] and in assay [8] was more than 100 µM in each case.
Consider `COc1ccc(C(=O)C(c2ccc(OC)cc2)C2(O)C(=O)Nc3c(C)cc(Cl)cc32)cc1` (stereo not drawn), for which the TGI in [1], in assay [2], in assay [3], in assay [4], in [5] and in [6] was more than 100 µM in each case. Further, the TGI in assay [7] is 44.2 µM; in [8], more than 100 µM.
